In ChEMBL document CHEMBL5104197, “Structure-Based Optimization of Coumestan Derivatives as Polyketide Synthase 13-Thioesterase(Pks13-TE) Inhibitors with Improved hERG Profiles for Mycobacterium tuberculosis Treatment” (J Med Chem, 2022) one finds ΔTm and MIC90 data, which are given here for 6 compounds.

≈ marks a conversion by molar mass, not a printed value.

Assay [1] relates to Polyketide synthase Pks13 (Mycobacterium tuberculosis (strain ATCC 25618 / H37Rv)), I6X8D2 [N1640S]. In words: Binding affinity to Mycobacterium tuberculosis Pks13-TE N1640S mutant expressed in Escherichia coli BL21(DE3) pLysS assessed as change in melting temperature at 1:5 compound to protein ratio by nanoDSF thermal stability analysis. On the technique in general: In DSF a fluorescence change marks the thermal transition of the protein.

Assay [2] shares this test system. In words: Binding affinity to Mycobacterium tuberculosis Pks13-TE N1640S mutant expressed in Escherichia coli BL21(DE3) pLysS assessed as change in melting temperature at 1:10 compound to protein ratio by nanoDSF thermal stability analysis.
The subject of assay [3] is Mycobacterium tuberculosis. The class given is functional, Vero. The note with it: TF274, 168 h, time 7 day.
Assay [4] has as its system Polyketide synthase Pks13 (Mycobacterium tuberculosis (strain ATCC 25618 / H37Rv)), I6X8D2 [N1640K]. In words: Binding affinity to Mycobacterium tuberculosis Pks13-TE N1640K mutant expressed in Escherichia coli BL21(DE3) pLysS assessed as change in melting temperature at 1:5 compound to protein ratio by nanoDSF thermal stability analysis.
Assay [5] deals with Mycobacterium tuberculosis. Format: functional, Vero. The note with it: KZN494, 168 h, time 7 day.
Assay [6] has as its system Mycobacterium tuberculosis. The class given is functional, Vero. The note with it: R506, 168 h, time 7 day.
The subject of assay [7] is Polyketide synthase Pks13 (Mycobacterium tuberculosis (strain ATCC 25618 / H37Rv)), I6X8D2 [N1640K]. The assay can be described thus: Binding affinity to Mycobacterium tuberculosis Pks13-TE N1640K mutant expressed in Escherichia coli BL21(DE3) pLysS assessed as change in melting temperature at 1:10 compound to protein ratio by nanoDSF thermal stability analysis.
Assay [8] has as its system Mycobacterium tuberculosis. Format: functional, Vero. The note with it: V2475, 168 h, time 7 day.

As to `COc1ccc2c(c1)oc(=O)c1c2oc2ccc(O)c(CN3CCC(F)(F)CC3)c21`, the ΔTm (as a rule, the change in melting temperature against a reference sample) in assay [1] was 1.9 °C; in assay [2] it was 1.7 °C.

`O=c1oc2cc(O)ccc2c2oc3ccc(O)c(CN4CCC(F)CC4)c3c12`: the MIC90 (usually an inhibitory concentration at the 90% level, which refers to growth in some studies and to a panel of isolates in others) in assay [3] came to 0.0625 µg/mL (≈ 0.163 µM); in assay [5], 0.0625 µg/mL (≈ 0.163 µM); in assay [6], 0.0625 µg/mL (≈ 0.163 µM); in assay [8], 0.125 µg/mL (≈ 0.326 µM). Moreover, the ΔTm was determined as 1.5 °C in assay [4], 8.7 °C in assay [1], 9.6 °C in assay [2] and 1 °C in assay [7].

In the case of `O=c1oc2cc(O)ccc2c2oc3ccc4c(c3c12)CN(C1CCCC1)CO4`, the MIC90 in assay [3], in assay [5], in assay [6] and in assay [8] was 0.0039 µg/mL (≈ 0.0103 µM) each time. Also, the ΔTm in assay [4] stood at 0.3 °C; in assay [1] it was 10.1 °C; in assay [2], 10.9 °C; in assay [7] it was 0.1 °C.

Take `O=c1oc2cc(O)ccc2c2oc3ccc4c(c3c12)CN(CC1CC1)CO4`: the ΔTm in assay [4] was 0.2 °C; in assay [1] it was 8.6 °C; in assay [2] it was 9.3 °C; in assay [7] it was 0.1 °C.

Regarding `O=c1oc2cc(O)ccc2c2oc3ccc(O)c(CN4CC[C@H](F)C4)c3c12`, the ΔTm in assay [1] came out at 6.9 °C; in assay [2], 7.9 °C.

`O=c1oc2cc(O)ccc2c2oc3ccc(O)c(CN4CCCCC4)c3c12`: the ΔTm in assay [4] was 0.8 °C; in assay [1], 11.4 °C; in assay [2], 10.5 °C; in assay [7], 0.9 °C.
